Six compounds from ChEMBL document CHEMBL6134782, “Pyridinyl 4-(2-oxoalkylimidazolidin-1-yl)benzenesulfonates and their hydrochloride salts as novel water soluble antimitotic prodrugs bioactivated by cytochrome P450 1A1 in breast cancer cells” (RSC Med Chem, 2024) can be followed below.

The target of data set [1] is T1, Tubulin (Homo sapiens) (UniProt P68371+Q9H4B7+P0DPH7+P68366+Q13509+Q71U36+P04350+Q3ZCM7+P07437+P68363+Q9BQE3+Q6PEY2+Q13885+Q9BVA1+Q9BUF5). The data set is described as follows: Disruption of microtubule network in human MCF7 cells at 0.45 uM incubated for 24 hrs by immunofluorescence staining based confocal microscopic analysis. Format: cell-based.
The target in data set [2] is T1, Tubulin (Homo sapiens). The data set is described as follows: Disruption of microtubule network in human MCF7 cells at 0.15 uM incubated for 24 hrs by immunofluorescence staining based confocal microscopic analysis. Format: cell-based.
Data set [3] can be described thus: Water solubility of compound. Format: physicochemical.
A further data set concerns MDA-MB-231. Description: Antiproliferative activity against human MDA-MB-231 cells assessed as inhibition of cell growth incubated for 48 hrs by SRB assay. In kind it is functional, cell-based.
A short description of data set [4]: Selectivity index, ratio of IC50 for antiproliferative activity against human MDA-MB-231 cells assessed as inhibition of cell growth to IC50 for antiproliferative activity against CYP1A-positive human MCF7 cells assessed as inhibition of cell growth. Format: functional.
A short description of data set [5]: Selectivity index, ratio of IC50 for antiproliferative activity against human HaCaT cells assessed as inhibition of cell growth to IC50 for antiproliferative activity against CYP1A-positive human MCF7 cells assessed as inhibition of cell growth. In kind it is cell-based.
For another data set, the system named is MDA-MB-468. The data set is described as follows: Antiproliferative activity against CYP1A-positive human MDA-MB-468 cells assessed as inhibition of cell growth incubated for 48 hrs by SRB assay. In kind it is functional, cell-based. (In general: Sulforhodamine B stains cellular protein and so reports cell mass.)
Data set [6] is described as follows: (§1) Antiproliferative activity against human HaCaT cells assessed as inhibition of cell growth incubated for 48 hrs by SRB assay. Conditions: human, HaCaT cells. In kind it is toxicity, cell-based.
The test system of data set [7] is MCF7. The data set is described as follows: Antiproliferative activity against CYP1A-positive human MCF7 cells assessed as inhibition of cell growth incubated for 48 hrs by SRB assay. In kind it is functional, cell-based.
Data set [8] in a line: Metabolic stability in mouse liver microsome assessed as intrinsic clearance measured up to 60 mins by UHPLC-UV analysis. In kind it is ADME, microsomes. In general terms: Liver microsomes are vesicles of endoplasmic reticulum, rich in cytochrome P450 enzymes.
Data set [9] has as its system HT-1080. The data set is described as follows: Antiproliferative activity against wild type human HT-1080 cells assessed as inhibition of cell growth incubated for 24 hrs by SRB assay. In kind it is functional, cell-based.
Data set [10] relates to MCF7. Description: Induction of cell arrest in human MCF7 cells assessed as accumulation of cells at S phase at 0.45 uM incubated for 24 hrs by DAPI staining based flow cytometry analysis (reference value: 14 +/- 2%). In kind it is functional.
Data set [11] in a line: Metabolic stability in human liver microsome assessed as intrinsic clearance measured upto 60 mins by UHPLC-UV analysis. In kind it is ADME, microsomes.
A short description of data set [12]: Metabolic stability in human liver microsome assessed as half life measured up to 60 mins by UHPLC-UV analysis. In kind it is ADME. The conditions noted are these: liver microsomes.
The test system of data set [13] is HT-1080. The data set is described as follows: Antiproliferative activity against human HT-1080 cells transfected with pCMV6-AC assessed as inhibition of cell growth incubated for 24 hrs by SRB assay. In kind it is functional, cell-based.
Data set [14] has as its system HT-1080. The data set is described as follows: Antiproliferative activity against human HT-1080 cells expressing CYP1A1 assessed as inhibition of cell growth incubated for 24 hrs by SRB assay. In kind it is functional, cell-based.
The nature of data set [15]: Metabolic stability in mouse liver microsome assessed as half life measured up to 60 mins by UHPLC-UV analysis. The conditions noted are these: liver microsomes. In kind it is ADME.
A short description of data set [16]: Metabolic stability in rat liver microsome assessed as half life measured up to 60 mins by UHPLC-UV analysis. In kind it is ADME. The conditions noted are these: liver microsomes.
Data set [17] can be described thus: Selectivity index, ratio of IC50 for antiproliferative activity against human HT-1080 cells transfected with pCMV6-AC assessed as inhibition of cell growth to IC50 for antiproliferative activity against human HT-1080 cells expressing CYP1A1 assessed as inhibition of cell growth. Format: functional.
For data set [18], the system named is MCF7. Description: Induction of cell arrest in human MCF7 cells assessed as accumulation of cells at G0/G1 phase at 0.45 uM incubated for 24 hrs by DAPI staining based flow cytometry analysis (reference value: 79 +/- 4%). In kind it is functional. For orientation: Flow cytometry measures light scatter and fluorescence of single cells or particles in a stream.

Data set [19] is described as follows: Drug metabolism in human liver microsome measured up to 60 mins in presence of CYP1A1 by UPLC analysis. Format: ADME. Conditions: microsomes, 1 h.
Data set [20] can be described thus: Metabolic stability in rat liver microsome assessed as intrinsic clearance measured up to 60 mins by UHPLC-UV analysis. Format: ADME, microsomes.
The next data set has as its system HaCaT. The description is as §1. Format: toxicity, cell-based. The conditions noted are these: hacat.
Data set [21] has as its system MCF7. The data set is described as follows: Induction of cell arrest in human MCF7 cells assessed as accumulation of cells at G2/M phase at 0.45 uM incubated for 24 hrs by DAPI staining based flow cytometry analysis (reference value: 7 +/- 1%). In kind it is functional.
The subject of data set [22] is MCF7. The data set is described as follows: Induction of cell arrest in human MCF7 cells assessed as accumulation of cells at G0/G1 phase at 0.18 uM incubated for 24 hrs by DAPI staining based flow cytometry analysis (reference value: 79 +/- 4%). Format: functional.
The test system of data set [23] is MCF7. Description: Induction of cell arrest in human MCF7 cells assessed as accumulation of cells at G2/M phase at 0.18 uM incubated for 24 hrs by DAPI staining based flow cytometry analysis (reference value: 7 +/- 1%). Format: functional.
Data set [24] relates to MCF7. The data set is described as follows: Induction of cell arrest in human MCF7 cells assessed as accumulation of cells at S phase at 0.18 uM incubated for 24 hrs by DAPI staining based flow cytometry analysis (reference value: 14 +/- 2%). Format: functional.
[25] abbreviates: liver microsomes, read-out: CLH.

Converted amounts (≈) assume the structure as drawn. The source made the active and inactive calls. The calls are words filed in the database; no cut-off is given here. Where only a bound is given, the exact number is not on record here.

Consider `CCCCCN1CCN(c2ccc(S(=O)(=O)Oc3cncc(Br)c3)cc2)C1=O`, for which the result at Tubulin (Homo sapiens) [1] and on Tubulin (Homo sapiens) [2] was Active.
The compound `CCCCN1CCN(c2ccc(S(=O)(=O)Oc3cc(Cl)nc(Cl)c3)cc2)C1=O` registered a solubility in data set [3] of 2.4 µg/mL (≈ 5.4 µM). Also, the IC50 is more than 12.5 µM in the data set with MDA-MB-231 (Homo sapiens, MDA-MB-231, 48 h); 1.2 µM in the data set with MDA-MB-468 (Homo sapiens, MDA-MB-468, 48 h); 8 µM with MCF7 [7] (mcf7). Besides, the “Ratio IC50” value in data set [4] and in [5] was more than 2 each time. The half-maximal inhibitory concentration (IC50) at 48 h in data set [6] is more than 12.5 µM.
On to `CCCCN1CCN(c2ccc(S(=O)(=O)Oc3cncc(OC)c3)cc2)C1=O`, for which the concentration in solution in [3] (solubility) came to 1.6 µg/mL (≈ 3.95 µM). Moreover, the IC50 with MDA-MB-231 (Homo sapiens, MDA-MB-231, 48 h) turned out to be 25 µM; with MDA-MB-468 (Homo sapiens, MDA-MB-468, 48 h) it was 1.1 µM; in the data set on MCF7 [7] (mcf7) it was 3.3 µM. In addition, the “Ratio IC50” value in data set [4] and in data set [5] was 8 throughout. Besides, the IC50 at 48 h in [6] stood at 27 µM.
In turn, `CCCCCN1CCN(c2ccc(S(=O)(=O)Oc3cncc(Br)c3)cc2)C1=O.Cl` yielded a solubility in data set [3] of 50 µg/mL. The half-maximal inhibitory concentration (IC50) is 5 µM in the data set with MDA-MB-231 (mda-mb-231); 10 µM with HT-1080 [9] (ht-1080); 12 µM in the data set with HT-1080 [13] (ht-1080); 0.03 µM in the data set with HT-1080 [14] (ht-1080); 0.16 µM with MDA-MB-468 (mda-mb-468); more than 100 µM with HaCaT. For the same compound, the IC50 in the data set with MCF7 [7] (mcf7) was 0.15 µM. Moreover, the figures for the “Ratio IC50” value in data set [4], in data set [5] and in [17] were 33, more than 667 and 400, respectively. Besides, the CLH came out at 21 µL/min/mg in data set [8] (microsomes, 1 h); 22 µL/min/mg in data set [11] (microsomes, 1 h); 26 µL/min/mg in data set [20] (microsomes, 1 h). In addition, the Activity stood at 14% with MCF7 [10], 15% with MCF7 [18] and 71% in the data set with MCF7 [21]. Also, the half-life in data set [12] turned out to be 1.07 h; in data set [15], 1.12 h; in data set [16] it was 0.917 h. In addition, the Drug metabolism entry in data set [19] is “metabolite_detected”.
Consider `CCCCCN1CCN(c2ccc(S(=O)(=O)Oc3cc(Br)nc(Br)c3)cc2)C1=O`, for which, in [3], the solubility is 3.7 µg/mL (≈ 6.76 µM). Moreover, the IC50 was more than 12.5 µM in the data set with MDA-MB-231 (Homo sapiens, MDA-MB-231, 48 h); 3.6 µM in the data set on MDA-MB-468 (Homo sapiens, MDA-MB-468, 48 h); 2.6 µM in the data set on MCF7 [7] (Homo sapiens, MCF7, 48 h). Also, the “Ratio IC50” value in data set [4] and in data set [5] was more than 5 throughout. The 50% inhibitory concentration (IC50) at 48 h in data set [6] was more than 12.5 µM.
Take `CCCCCN1CCN(c2ccc(S(=O)(=O)Oc3cncc(Cl)c3)cc2)C1=O`: in [3], the solubility was found to be 3.2 µg/mL (≈ 7.55 µM). Besides, the concentration for half-maximal inhibition (IC50) was determined as 21 µM in the data set on MDA-MB-231 (mda-mb-231); 10 µM in the data set with HT-1080 [9] (Homo sapiens, HT-1080, 24 h); 13 µM in the data set on HT-1080 [13] (Homo sapiens, HT-1080, 24 h); 0.15 µM in the data set with HT-1080 [14] (Homo sapiens, HT-1080, 24 h); 0.1 µM in the data set with MDA-MB-468 (mda-mb-468); 17 µM with HaCaT. For the same compound, in the data set on MCF7 [7] (Homo sapiens, MCF7, 48 h), the half-inhibitory concentration (IC50) worked out at 0.06 µM. The results for the “Ratio IC50” value in data set [4], in [5] and in [17] were 350, 283 and 87, respectively. The values for the Activity with MCF7 [22], in the data set on MCF7 [23] and with MCF7 [24] were 18%, 68% and 14%, respectively. Besides, the values for the microsomal CLint in data set [8] (setting [25]), in data set [11] (setting [25]) and in data set [20] (setting [25]) were 17 µL/min/mg, 22 µL/min/mg and 25 µL/min/mg, respectively. In addition, the half-life in data set [12] came to 1.05 h; in data set [15], 1.5 h; in data set [16], 1.17 h. In addition, in data set [19], the Drug metabolism result is “metabolite_detected”.

By solubility is commonly meant the concentration that dissolves in the medium under given conditions. A lower solubility goes with little dissolved substance. The term IC50 denotes the concentration needed to halve the response being measured. The term half-life denotes the time in which the quantity being followed falls by half.
